The source of these data is article PMC11453076, “Optimization, purification and characterization of laccase from a new endophytic Trichoderma harzianum AUMC14897 isolated from Opuntia ficus-indica and its applications in dye decolorization and wastewater treatment” (Microbial Cell Factories, 2024).

For this assay, the system named is T1, laccase from T. harzianum AUMC14897.
T1 construct: gene benzenediol:oxygen oxidoreductase; 72 kDa by GFC and SDS-PAGE; single zymogram band
Kind of assay: ABTS oxidation at […] nm, Lineweaver-Burk plot. In kind it is biochemical, Trichoderma harzianum. Conditions: ABTS 0.02-0.1 mM; pH and temperature of the Km assay not restated (general assay: 50 mM sodium acetate pH 5.4, 37 °C).

`CCn1c(=NN=c2sc3cc(S(=O)(=O)O)ccc3n2CC)sc2cc(S(=O)(=O)O)ccc21` [ABTS, 2,2'-Azino-bis(3-ethylbenzothiazoline-6-sulfonic acid)]: the Km was 100 µM.
